US11117900B2 (Vertex Pharmaceuticals Incorporated, priority 2012, dated 2021)

system: HCT116 colorectal cancer cells; assay: Cisplatin sensitization assay (96 h MTS cell viability); assay type: cell-based; conditions: Cisplatin sensitization value;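 further: compound concentration needed to lower the IC50 of Cisplatin alone by a set fold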
In short: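 The MTS viability read, after 1 h with reagent, followed 96 h of co-treatment at 37° C. in 5% CO2. Both compound and cisplatin were titrated 2-fold from a 10 μM top final concentration in a complete concentration matrix on HCT116 cells. Scores +++/++/+ reflect cisplatin sensitization value ranges.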

Row | Compound | Cisplatin Sensitization Assay
1 | Nc1nn2cc(Cl)cnc2c1C(=O)Nc1cnccc1OC1CN2CCC1CC2 (centres unmarked) [I-O-62, 2-amino-6-chloro-N-(4-(quinuclidin-3-yloxy)pyridin-3-yl)pyrazolo[1,5-a]pyrimidine-3-carboxamide] | +++ (Compounds with a Cisplatin sensitization value of <0.02 μM are marked with “+++.”)
2 | Nc1nn2cc(F)cnc2c1C(=O)Nc1cncc(F)c1N1CCC(C(=O)N2CCNC3CC32)CC1 (centres unmarked) [I-G-62, N-(4-(4-(2,5-diazabicyclo[4.1.0]heptane-2-carbonyl)piperidin-1-yl)-5-fluoropyridin-3-yl)-2-amino-6-fluoropyrazolo[1,5-a]pyrimidine-3-carboxamide] | +++ (Compounds with a Cisplatin sensitization value of <0.02 μM are marked with “+++.”)
3 | N#CCc1cnc2c(C(=O)Nc3cnccc3OC3CCOC3)c(N)nn2c1 (racemic) [I-O-37, (R,S)-2-amino-6-(cyanomethyl)-N-(4-((tetrahydrofuran-3-yl)oxy)pyridin-3-yl)pyrazolo[1,5-a]pyrimidine-3-carboxamide] | +++ (Compounds with a Cisplatin sensitization value of <0.02 μM are marked with “+++.”)
4 | Nc1nn2cc(F)cnc2c1C(=O)Nc1cnccc1N1CCN2C(=O)OCC2C1 (centres unmarked) [I-N-238, 2-amino-6-fluoro-N-(4-(3-oxotetrahydro-1H-oxazolo[3,4-a]pyrazin-7(3H)-yl)pyridin-3-yl)pyrazolo[1,5-a]pyrimidine-3-carboxamide] | ++ (Compounds with a Cisplatin sensitization value >0.02 μM but <0.2 μM are marked with “++.”)
5 | N#CCc1cnc2c(C(=O)Nc3cnccc3OC3CCNCC3)c(N)nn2c1 [I-O-84, 2-amino-6-(cyanomethyl)-N-(4-(piperidin-4-yloxy)pyridin-3-yl)pyrazolo[1,5-a]pyrimidine-3-carboxamide] | ++ (Compounds with a Cisplatin sensitization value >0.02 μM but <0.2 μM are marked with “++.”)
6 | CC1(O)CCN(c2ccncc2NC(=O)c2c(N)nn3cc(Cl)cnc23)CC1 [I-N-66, 2-amino-6-chloro-N-(4-(4-hydroxy-4-methylpiperidin-1-yl)pyridin-3-yl)pyrazolo[1,5-a]pyrimidine-3-carboxamide] | +++ (Compounds with a Cisplatin sensitization value of <0.02 μM are marked with “+++.”)
7 | N#CCc1cnc2c(C(=O)Nc3cnccc3OCC(F)(F)F)c(N)nn2c1 [I-O-34, 2-amino-6-(cyanomethyl)-N-(4-(2,2,2-trifluoroethoxy)pyridin-3-yl)pyrazolo[1,5-a]pyrimidine-3-carboxamide] | ++ (Compounds with a Cisplatin sensitization value >0.02 μM but <0.2 μM are marked with “++.”)
8 | CN1CCN(c2c(Cl)cncc2NC(=O)c2c(N)nn3cc(Cl)cnc23)CC1 [I-N-41, 2-amino-6-chloro-N-(5-chloro-4-(4-methylpiperazin-1-yl)pyridin-3-yl)pyrazolo[1,5-a]pyrimidine-3-carboxamide] | +++ (Compounds with a Cisplatin sensitization value of <0.02 μM are marked with “+++.”)
9 | CC(C)Oc1ccncc1NC(=O)c1c(N)nn2cc(CC#N)cnc12 [I-O-35, 2-amino-6-(cyanomethyl)-N-(4-isopropoxypyridin-3-yl)pyrazolo[1,5-a]pyrimidine-3-carboxamide] | +++ (Compounds with a Cisplatin sensitization value of <0.02 μM are marked with “+++.”)
10 | Nc1nn2cc(F)cnc2c1C(=O)Nc1cncc(F)c1N1CCN(CC(=O)N2CCC2)CC1 [I-N-228, 2-amino-N-(4-(4-(2-(azetidin-1-yl)-2-oxoethyl)piperazin-1-yl)-5-fluoropyridin-3-yl)-6-fluoropyrazolo[1,5-a]pyrimidine-3-carboxamide] | +++ (Compounds with a Cisplatin sensitization value of <0.02 μM are marked with “+++.”)
11 | N#CCc1cnc2c(C(=O)Nc3cnccc3O[C@H]3CCOC3)c(N)nn2c1 [I-O-42, (S)-2-amino-6-(cyanomethyl)-N-(4-((tetrahydrofuran-3-yl)oxy)pyridin-3-yl)pyrazolo[1,5-a]pyrimidine-3-carboxamide] | +++ (Compounds with a Cisplatin sensitization value of <0.02 μM are marked with “+++.”)
12 | CCN1CCN(C(=O)C2CCN(c3c(F)cncc3NC(=O)c3c(N)nn4cc(F)cnc34)CC2)CC1 [I-G-9, 2-amino-N-(4-(4-(4-ethylpiperazine-1-carbonyl)piperidin-1-yl)-5-fluoropyridin-3-yl)-6-fluoropyrazolo[1,5-a]pyrimidine-3-carboxamide] | +++ (Compounds with a Cisplatin sensitization value of <0.02 μM are marked with “+++.”)
13 | Nc1nn2cc(F)cnc2c1C(=O)Nc1cncc(F)c1N1CCN2C(=O)OC[C@@H]2C1 [I-N-248, (S)-2-amino-6-fluoro-N-(5-fluoro-4-(3-oxotetrahydro-1H-oxazolo[3,4-a]pyrazin-7(3H)-yl)pyridin-3-yl)pyrazolo[1,5-a]pyrimidine-3-carboxamide] | ++ (Compounds with a Cisplatin sensitization value >0.02 μM but <0.2 μM are marked with “++.”)
14 | Nc1nn2cc(Cl)cnc2c1C(=O)Nc1cnccc1OCC(F)(F)F [I-O-59, 2-amino-6-chloro-N-(4-(2,2,2-trifluoroethoxy)pyridin-3-yl)pyrazolo[1,5-a]pyrimidine-3-carboxamide] | +++ (Compounds with a Cisplatin sensitization value of <0.02 μM are marked with “+++.”)
15 | COc1ccncc1NC(=O)c1c(N)nn2cc(C(C)C#N)cnc12 (centres unmarked) [I-O-21, 2-amino-6-(1-cyanoethyl)-N-(4-methoxypyridin-3-yl)pyrazolo[1,5-a]pyrimidine-3-carboxamide] | ++ (Compounds with a Cisplatin sensitization value >0.02 μM but <0.2 μM are marked with “++.”)
16 | Cc1cncc(NC(=O)c2c(N)nn3cc(F)cnc23)c1N1CCN(C2COC2)CC1 [I-N-16, 2-amino-6-fluoro-N-(5-methyl-4-(4-(oxetan-3-yl)piperazin-1-yl)pyridin-3-yl)pyrazolo[1,5-a]pyrimidine-3-carboxamide] | +++ (Compounds with a Cisplatin sensitization value of <0.02 μM are marked with “+++.”)
17 | Nc1nn2cc(F)cnc2c1C(=O)Nc1cnccc1C1CCN(S(=O)(=O)C2CC2)CC1 [I-C-47, 2-amino-N-(4-(1-(cyclopropylsulfonyl)piperidin-4-yl)pyridin-3-yl)-6-fluoropyrazolo[1,5-a]pyrimidine-3-carboxamide] | +++ (Compounds with a Cisplatin sensitization value of <0.02 μM are marked with “+++.”)
18 | Nc1nn2cc(F)cnc2c1C(=O)Nc1cncc(F)c1N1CCC(C(=O)N2CCC(N3CCCC3)CC2)CC1 [I-G-59, 2-amino-6-fluoro-N-(5-fluoro-4-(4-(4-(pyrrolidin-1-yl)piperidine-1-carbonyl)piperidin-1-yl)pyridin-3-yl)pyrazolo[1,5-a]pyrimidine-3-carboxamide] | +++ (Compounds with a Cisplatin sensitization value of <0.02 μM are marked with “+++.”)
19 | Nc1nn2cc(F)cnc2c1C(=O)Nc1cnccc1N1CCN(S(=O)(=O)C2CCOC2)CC1 (centres unmarked) [I-N-179, 2-amino-6-fluoro-N-(4-(4-((tetrahydrofuran-3-yl)sulfonyl)piperazin-1-yl)pyridin-3-yl)pyrazolo[1,5-a]pyrimidine-3-carboxamide] | +++ (Compounds with a Cisplatin sensitization value of <0.02 μM are marked with “+++.”)
20 | Cc1ccnn1-c1ccncc1NC(=O)c1c(N)nn2cc(F)cnc12 [I-N-223, 2-amino-6-fluoro-N-(4-(5-methyl-1H-pyrazol-1-yl)pyridin-3-yl)pyrazolo[1,5-a]pyrimidine-3-carboxamide] | ++ (Compounds with a Cisplatin sensitization value >0.02 μM but <0.2 μM are marked with “++.”)
21 | Nc1nn2cc(Cl)cnc2c1C(=O)Nc1cnccc1OC1CCCOC1 (centres unmarked) [I-O-65, 2-amino-6-chloro-N-(4-((tetrahydro-2H-pyran-3-yl)oxy)pyridin-3-yl)pyrazolo[1,5-a]pyrimidine-3-carboxamide] | +++ (Compounds with a Cisplatin sensitization value of <0.02 μM are marked with “+++.”)
22 | CN1CCC(c2ccncc2NC(=O)c2c(N)nn3cc(F)cnc23)CC1 [I-C-1, 2-amino-6-fluoro-N-(4-(1-methylpiperidin-4-yl)pyridin-3-yl)pyrazolo[1,5-a]pyrimidine-3-carboxamide] | ++ (Compounds with a Cisplatin sensitization value >0.02 μM but <0.2 μM are marked with “++.”)
23 | COC1(C)CN(C(=O)C2CCN(c3ccncc3NC(=O)c3c(N)nn4cc(F)cnc34)CC2)C1 [I-G-79, 2-amino-6-fluoro-N-(4-(4-(3-methoxy-3-methylazetidine-1-carbonyl)piperidin-1-yl)pyridin-3-yl)pyrazolo[1,5-a]pyrimidine-3-carboxamide] | +++ (Compounds with a Cisplatin sensitization value of <0.02 μM are marked with “+++.”)
24 | Nc1nn2cc(F)cnc2c1C(=O)Nc1cnccc1C1CC1 [I-C-42, 2-amino-N-(4-cyclopropylpyridin-3-yl)-6-fluoropyrazolo[1,5-a]pyrimidine-3-carboxamide] | ++ (Compounds with a Cisplatin sensitization value >0.02 μM but <0.2 μM are marked with “++.”)
25 | CN1CC2(CCN(c3c(F)cncc3NC(=O)c3c(N)nn4cc(F)cnc34)CC2)OC1=O [I-N-229, 2-amino-6-fluoro-N-(5-fluoro-4-(3-methyl-2-oxo-1-oxa-3,8-diazaspiro[4.5]decan-8-yl)pyridin-3-yl)pyrazolo[1,5-a]pyrimidine-3-carboxamide] | +++ (Compounds with a Cisplatin sensitization value of <0.02 μM are marked with “+++.”)
26 | COc1ccncc1NC(=O)c1c(N)nn2cc(CC#N)cnc12 [I-O-26, 2-amino-6-(cyanomethyl)-N-(4-methoxypyridin-3-yl)pyrazolo[1,5-a]pyrimidine-3-carboxamide] | ++ (Compounds with a Cisplatin sensitization value >0.02 μM but <0.2 μM are marked with “++.”)
